Measured values reported in patent publication US10426757B2, “Compositions and methods for promoting intestinal stem cell and/or non-stem progenitor cell function” (Whitehead Institute for Biomedical Research, priority 2014, dated 2019).
Entries after “also recorded” stand apart in the source; their conditions may differ.

Assays:
Lgr5-GFP^low progenitors = assay: Organoid formation by sorted Lgr5-GFP^low progenitors; assay type: cell-based, mouse; settings: progenitors from GW501516-treated mice, vs vehicle
Experimental: (§1) Isolated ISCs or progenitor cells were centrifuged for 5 minutes at 250 g, re-suspended in the appropriate volume of crypt culture medium (500-1,000 cells μl^−1), then seeded onto 25-30 μl Matrigel™ (Corning 356231 growth factor reduced) containing 1 μM jagged (Ana-Spec) in a flat bottom 48-well plate (Corning 3548). Alternatively, ISCs and Paneth cells were mixed after sorting in a 1:1 ratio, centrifuged, and then seeded onto Matrigel™. The Matrigel™ and cells were allowed to solidify before adding 300 μl of crypt culture medium. The crypt media was changed every second or third day. Organoid bodies were quantified on days 3, 7 and 10 of culture, unless otherwise specified. With respect to the study results presented in FIGS. 14-16, organoid bodies were quantified on day 3-4. In secondary experiments, individual primary organoids were mechanically dissociated and re-plated, or organoids were dissociated for 10 minutes in TrypLE Express at 32° C., re-suspended with SMEM (Life Technologies), centrifuged and re-suspended in cold SMEM with viability dye 7-AAD. Live cells were sorted and seeded onto Matrigel™ as previously described.

small intestinal crypts = assay: Crypt organoid-forming (clonogenicity) assay in 3-D culture; assay type: cell-based, mouse; settings: crypts from GW501516-treated mice vs vehicle
β-catenin = β-catenin nuclear localization by immunostaining; assay type: in vivo, mouse; settings: GW501516-treated mice vs vehicle
[1] = test system: crypt base columnar cells and transit-amplifying cells; assay: BrdU incorporation into ISCs and TA-cells; assay type: in vivo, mouse; settings: GW501516-treated mice, 4 hours after BrdU pulse
Experimental: Mice were housed in the Unit for Laboratory Animal Medicine at the Whitehead Institute for Biomedical Research and Koch Institute for Integrative Cancer Research. Lgr5-EGFP-IRES-CreERT2 mice (strain name: […] B6.129S4-Gt(ROSA)26Sor^tm1Sor/J, stock number 003474) were obtained from the Jackson Laboratory. […] Control mice were age-matched and fed normal chow ad libitum. GW501516 (Enzo) was reconstituted in DMSO at 4.5 mg ml^-1 and diluted 1:10 in a solution of 5% PEG400 (Hampton Research), 5% Tween80 (Sigma), 90% H2O for a daily intraperitoneal injection of 4 mg/kg. Apc exon 14 was excised by tamoxifen suspended in sunflower seed oil (Spectrum […]) at a concentration of 10 mg ml^-1, and 250 μl per 25 g of body weight was administered by intraperitoneal injection to mice twice over 4 days before harvesting tissue. BrdU was prepared at 10 mg ml^-1 in PBS, passed through 0.22 μm filter and injected at 100 mg kg^-1. As previously described^5, tissues were fixed in 10% formalin, paraffin embedded and sectioned. Antigen retrieval was performed with Borg Decloaker RTU solution (Biocare Medical) in a pressurized Decloaking Chamber (Biocare Medical) for 3 minutes. […]

[2] = test system: Apc-null Lgr5-GFP^hi ISCs and Lgr5-GFP^low progenitors; assay: In vitro adenomatous organoid formation by Apc-null ISCs and progenitors; assay type: cell-based, mouse
Source text: To test this possibility, the present inventors generated Apc^loxp/loxp; Lgr5-EGFP-IRES-CreERT2 mice to assess whether pharmacological PPAR-δ activation modifies the tumorigenic capacity of the Lgr5-GFP^low progenitors. Injection with tamoxifen leads to Apc-loss in the Lgr5-GFP^hi ISCs, which in turn generate Apc-null Lgr5-GFP^low progenitors. Four days after tamoxifen administration, we flow sorted Apc-null Lgr5-GFP^hi ISCs and Lgr5-GFP^low progenitors from vehicle and PPAR-δ agonist treated mice to assess the tumor-forming potential of these populations using separate assays (FIG. 7B): first, we examined their ability to give rise to adenomatous organoids in culture; and second, we interrogated the ability of 10,000 freshly sorted stem and progenitor cells to initiate adenomatous lesions in syngeneic recipient colons.
as §1

[3] = test system: Olfm4+ ISCs and Cryptdin 4+ Paneth cells; assay: In situ hybridization for Olfm4 and Cryptdin 4, proximal jejunum; assay type: in vivo, mouse; settings: GW501516-treated mice vs vehicle
Source text: The in situ hybridization probes used in this study correspond to expressed sequence tags or fully sequenced cDNAs obtained from Open Biosystems. The accession numbers (IMAGE mouse cDNA clone in parenthesis) for these probes are as follows: mouse Olfm4 BC141127 (9055739), mouse Cryptdin 4 BC134360 (40134597). Both sense and antisense probes were generated to ensure specificity by in vitro transcription using DIG RNA labelling mix (Roche) according to the manufacturer's instructions and to previously published detailed methods.^24,44

Lgr5-GFP^hi ISCs = assay: Organoid formation by sorted Lgr5-GFP^hi ISCs with or without Paneth cells; assay type: cell-based, mouse; settings: ISCs from GW501516-treated mice, no Paneth cells, vs vehicle; listed as GW501515
Experimental: as §1

Cc1cc(SCc2sc(-c3ccc(C(F)(F)F)cc3)nc2C)ccc1OCC(=O)O [GW501516, 2-[2-methyl-4-[[4-methyl-2-[4-(trifluoromethyl)phenyl]-1,3-thiazol-5-yl]methylsulfanyl]phenoxy]acetic acid]
organoid-initiating capacity of Lgr5-GFP^low progenitors (Lgr5-GFP^low progenitors): possess the potential to autonomously form organoid bodies; also recorded: conferred organoid-initiating capacity
organoid-initiating capacity of Lgr5-GFP^low progenitors (Lgr5-GFP^low progenitors; listed as GW501515): sufficient to enhance
organoid-initiating capacity of Lgr5-GFP^low progenitors (Lgr5-GFP^low progenitors; listed as PPAR-δ agonist): capable of forming organoids
organoid-forming capacity of intestinal crypts (small intestinal crypts): more organoids; also recorded: boosted the organoid-forming capacity
nuclear β-catenin in stem and progenitor cells of crypts (intestinal sections) (β-catenin): increased nuclear β-catenin localization
nuclear β-catenin localization in flow sorted ISCs and progenitors (β-catenin): increased nuclear β-catenin localization
nuclear β-catenin in stem and progenitor cells of crypts (intestinal sections) (β-catenin; listed as PPAR-δ agonist): greater percentage
nuclear β-catenin localization in flow sorted ISCs and progenitors (β-catenin; listed as PPAR-δ agonist): more nuclear β-catenin accumulation
proliferation of CBC cells and transit-amplifying cells [1]: augmented; also recorded: enhanced the proliferation
in vitro adenoma-initiating potential of Apc-null Lgr5-GFP^low progenitors ([2]; GW501516-treated mice, EN media, vehicle 0.04±0.05): 0.18±0.07
in vitro adenomatous organoid-forming potential of Apc-null Lgr5-GFP^hi ISCs ([2]; GW501516-treated vs vehicle): not altered
increase of in vitro adenomatous organoid forming potential of Apc-null Lgr5-GFP^low progenitors ([2]; GW501516-treated vs vehicle, EN media): four-fold
in vitro adenomatous organoid-forming potential of Apc-null Lgr5-GFP^hi ISCs ([2]; GW501516-treated vs vehicle, listed as PPAR-δ agonist): as clonogenic as those from vehicle controls
Cryptdin 4+ Paneth cell numbers [3]: no impact; also recorded: remained unchanged
Olfm4+ ISC numbers per jejunal crypt [3]: augmented; also recorded: increased
Paneth cell-independent organoid-initiating capacity of Lgr5-GFP^hi ISCs (Lgr5-GFP^hi ISCs): sufficient to enhance
